Assay: xn = mol fraction of the nth substance listed

C[N+](C)(C)C.NCC(=O)[O-] + OCCO
303 K, 101 kPa
Settings | viscosity [mPa·s]
x1 = 0.044 | 46.5
x1 = 0.095 | 75.2
x1 = 0.15 | 103.9
x1 = 0.22 | 138
x1 = 0.39 | 185.9
x1 = 0.63 | 251.5

Nc1cccc2ccccc12 + CCCCO
viscosity [mPa·s], 101 kPa
Settings | x1 = 0.03572 | x1 = 0.06889 | x1 = 0.1289 | x1 = 0.1817 | x1 = 0.2285 | x1 = 0.2702 | x1 = 0.3076
293.15 K | 3.082 | 3.202 | 3.539 | 3.906 | 4.311 | 4.724 | 5.193
303.15 K | 2.355 | 2.427 | 2.641 | 2.879 | 3.134 | 3.39 | 3.681
313.15 K | 1.828 | 1.878 | 2.019 | 2.186 | 2.355 | 2.532 | 2.719
323.15 K | 1.456 | 1.494 | 1.596 | 1.718 | 1.839 | 1.965 | 2.097

N#Cc1ccccc1 + CCCCO
viscosity [mPa·s], 101.33 kPa
Settings | x1 = 0.033 | x1 = 0.1519 | x1 = 0.2155 | x1 = 0.3392 | x1 = 0.4092 | x1 = 0.504 | x1 = 0.6218 | x1 = 0.7894 | x1 = 0.9629
303.15 K | 2.094 | 1.716 | 1.583 | 1.382 | 1.3 | 1.213 | 1.149 | 1.108 | 1.119
308.15 K | 1.844 | 1.534 | 1.414 | 1.245 | 1.186 | 1.108 | 1.053 | 1.021 | 1.04
313.15 K | 1.66 | 1.378 | 1.281 | 1.14 | 1.08 | 1.02 | 0.976 | 0.945 | 0.978

CCCCn1cc[n+](C)c1.[Cl-] + CCO
viscosity [mPa·s], 101 kPa
Settings | 293.15 K | 303.15 K | 308.15 K
x2 = 0.4991 | 75.1 | – | –
x2 = 0.7003 | – | 9.24 | 8.17

CC(O)CN (stereo unspecified) + O
viscosity [mPa·s]
Settings | 293.15 K | 298.15 K | 303.15 K | 308.15 K | 313.15 K | 318.15 K | 323.15 K
101 kPa, x1 = 0.01 | – | – | – | – | – | 0.7225 | –
101 kPa, x1 = 0.06 | – | – | – | – | – | 1.155 | –
101 kPa, x1 = 0.5995 | – | – | – | – | 12.85 | – | –
101.3 kPa, x1 = 0.0126 | 1.228 | 1.03 | 0.894 | 0.781 | 0.682 | – | 0.573
101.3 kPa, x1 = 0.026 | 1.488 | 1.273 | 1.122 | 0.99 | 0.868 | – | 0.72
101.3 kPa, x1 = 0.0565 | 2.334 | 1.985 | 1.721 | 1.493 | 1.299 | – | 1.049

CC(C)C(C)C + CCCCCCCCCCCCCCCC
298 K, 101.33 kPa
Settings | viscosity [mPa·s]
x1 = 0.0846 | 2.773
x1 = 0.2077 | 2.325
x1 = 0.2966 | 2.045
x1 = 0.3988 | 1.74
x1 = 0.4973 | 1.432
x1 = 0.6023 | 1.135
x1 = 0.7034 | 0.8764
x1 = 0.8019 | 0.6623
x1 = 0.9002 | 0.4751

NNc1ccccc1 + Oc1ccccc1Cl
323.1 K, 101 kPa
Settings | viscosity [mPa·s]
x1 = 0.1706 | 3.51
x1 = 0.401 | 7.16
x1 = 0.508 | 8.27
x1 = 0.536 | 8.18
x1 = 0.781 | 6.955

Nc1cccc2ccccc12 + Oc1ccccc1
viscosity [mPa·s], 101.33 kPa
Settings | x1 = 0.4159 | x1 = 0.4605 | x1 = 0.7133 | x1 = 0.8902
303.15 K | 24.9 | 26.9 | 32.4 | –
323.15 K | 8.52 | 9 | 10.9 | 11.3

CCCOCCO + CC(=O)N(C)C
298.15 K, 101 kPa
Settings | viscosity [mPa·s]
x1 = 0.0049 | 0.951
x1 = 0.0086 | 0.956
x1 = 0.0134 | 0.961
x1 = 0.0272 | 0.982
x1 = 0.0419 | 1.01
x1 = 0.0739 | 1.049
x1 = 0.1253 | 1.125
x1 = 0.178 | 1.202
x1 = 0.2555 | 1.322
x1 = 0.3191 | 1.426
x1 = 0.3487 | 1.478
x1 = 0.3842 | 1.536
x1 = 0.4022 | 1.578
x1 = 0.4678 | 1.679
x1 = 0.5258 | 1.786
x1 = 0.5917 | 1.897
x1 = 0.6504 | 1.987
x1 = 0.725 | 2.094
x1 = 0.8523 | 2.26
x1 = 0.9508 | 2.339
x1 = 0.979 | 2.345

N#Cc1ccccc1 + CCO
viscosity [mPa·s], 101.33 kPa
Settings | x1 = 0.1051 | x1 = 0.2045 | x1 = 0.3213 | x1 = 0.4131 | x1 = 0.4921 | x1 = 0.6214 | x1 = 0.6673 | x1 = 0.769 | x1 = 0.9218
303.15 K | 0.923 | 0.891 | 0.897 | 0.901 | 0.912 | 0.938 | 0.963 | 1.006 | 1.075
308.15 K | 0.846 | 0.817 | 0.826 | 0.834 | 0.849 | 0.873 | 0.893 | 0.935 | 1.005
313.15 K | 0.775 | 0.75 | 0.762 | 0.772 | 0.785 | 0.813 | 0.828 | 0.87 | 0.939

CCCCOCCCOCCCO + CCO
viscosity [mPa·s], 101.33 kPa
Settings | 298.15 K | 308.15 K | 318.15 K
x1 = 0.05 | 1.3 | 1.074 | 0.896
x1 = 0.1 | 1.505 | 1.227 | 1.015
x1 = 0.15 | 1.717 | 1.386 | 1.137
x1 = 0.2 | 1.927 | 1.541 | 1.256
x1 = 0.25 | 2.135 | 1.696 | 1.369
x1 = 0.3 | 2.362 | 1.858 | 1.497
x1 = 0.35 | 2.562 | 2.003 | 1.597
x1 = 0.4001 | 2.755 | 2.14 | 1.696
x1 = 0.4499 | 2.94 | 2.265 | 1.79
x1 = 0.4999 | 3.121 | 2.39 | 1.879
x1 = 0.5499 | 3.292 | 2.51 | 1.956
x1 = 0.5997 | 3.453 | 2.622 | 2.039
x1 = 0.6501 | 3.608 | 2.724 | 2.114
x1 = 0.6998 | 3.756 | 2.821 | 2.182
x1 = 0.7499 | 3.899 | 2.91 | 2.24
x1 = 0.7999 | 4.018 | 2.998 | 2.306
x1 = 0.8499 | 4.147 | 3.088 | 2.363
x1 = 0.8997 | 4.271 | 3.158 | 2.423
x1 = 0.9498 | 4.386 | 3.233 | 2.466
